Source: patent US4738982A, “HMG-CoA reductase inhibitors” (Merck & Co., Inc., priority 1986, dated 1988)

Target: T1, HMG-CoA reductase (Rattus norvegicus, UniProt P51639)
T1 sequence (P51639 1-887): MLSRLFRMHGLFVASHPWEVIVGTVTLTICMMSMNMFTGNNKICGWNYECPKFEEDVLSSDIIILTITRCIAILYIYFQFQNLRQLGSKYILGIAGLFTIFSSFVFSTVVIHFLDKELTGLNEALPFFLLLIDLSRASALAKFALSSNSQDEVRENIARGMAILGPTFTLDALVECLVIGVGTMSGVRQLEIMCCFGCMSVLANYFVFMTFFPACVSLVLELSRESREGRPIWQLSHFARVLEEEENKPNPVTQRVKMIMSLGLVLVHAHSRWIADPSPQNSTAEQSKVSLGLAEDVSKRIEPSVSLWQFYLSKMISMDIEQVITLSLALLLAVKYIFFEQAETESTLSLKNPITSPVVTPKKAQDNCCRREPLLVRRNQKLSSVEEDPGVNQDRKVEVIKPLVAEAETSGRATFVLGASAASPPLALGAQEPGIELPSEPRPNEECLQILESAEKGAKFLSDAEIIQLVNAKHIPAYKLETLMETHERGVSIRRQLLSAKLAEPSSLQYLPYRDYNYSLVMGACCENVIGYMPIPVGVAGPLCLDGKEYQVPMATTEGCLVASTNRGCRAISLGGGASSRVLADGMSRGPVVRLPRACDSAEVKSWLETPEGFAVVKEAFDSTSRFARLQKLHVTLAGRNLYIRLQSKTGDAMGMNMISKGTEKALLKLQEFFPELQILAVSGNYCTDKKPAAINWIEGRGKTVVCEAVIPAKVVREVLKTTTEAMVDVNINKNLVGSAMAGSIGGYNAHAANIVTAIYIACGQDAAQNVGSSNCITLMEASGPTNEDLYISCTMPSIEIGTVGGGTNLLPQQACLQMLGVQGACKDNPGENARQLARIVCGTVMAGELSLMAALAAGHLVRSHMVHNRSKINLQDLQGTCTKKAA
Experiment: intrinsic HMG-CoA reductase inhibition, in vitro protocol of J. Med. Chem., 1985, 28, page 347
Format: biochemical
Conditions: in vitro protocol described in J. Med. Chem., 1985, 28, page 347
Protocol: The intrinsic HMG-CoA reductase inhibition activity of the claimed compounds is measured in the in vitro protocol described is J. Med. Chem., 1985, 28, page 347.

For `CC[C@H](C)C(=O)O[C@H]1C[C@@H](C)CC2=CC(O)[C@H](C)C(CC[C@@H](O)C[C@@H](O)CC(=O)O)=C21` (stereo partly shown), the IC50 was 547 nM.
